Results on 3 molecules are retold here after ChEMBL document CHEMBL1201862, “PubChem BioAssay data set” (2004).

The nature of assay [1]: growth suppression of PTEN-null colon cells, dose response, cell-based, HCT116 PTEN knockout (AID 1047).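 Further: HCT116 colon tumor cells with PTEN knocked out; cells exposed to compound for 60 hours before readout; potency for loss of cell viability measured by luminescence.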 It counts as functional.
For the next assay, the target named is T1, Caspase-3 (Homo sapiens, UniProt P42574).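 Further: Dose-response selectivity test against caspase-3 for candidate inhibitors of sentrin-specific proteases (SENPs).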
T1 sequence (P42574 whole entry): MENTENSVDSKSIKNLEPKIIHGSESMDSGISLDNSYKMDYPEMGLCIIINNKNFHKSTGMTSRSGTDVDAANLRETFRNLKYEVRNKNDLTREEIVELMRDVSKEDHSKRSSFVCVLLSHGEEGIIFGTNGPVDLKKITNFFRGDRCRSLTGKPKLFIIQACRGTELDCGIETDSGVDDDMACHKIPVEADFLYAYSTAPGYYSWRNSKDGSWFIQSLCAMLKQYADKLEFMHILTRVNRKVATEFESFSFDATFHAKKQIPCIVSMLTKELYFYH
It counts as functional.

The target in assay [2] is Glycogen synthase kinase-3 beta (Homo sapiens, UniProt P49841). It counts as functional.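 Further: value comes from a broad kinome profiling panel, with GSK3B as the panel member.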
Assay [3] deals with MAP kinase-activated protein kinase 3 (Homo sapiens, UniProt Q16644). It counts as functional.
Chain of MAP kinase-activated protein kinase 3 (Q16644 whole entry): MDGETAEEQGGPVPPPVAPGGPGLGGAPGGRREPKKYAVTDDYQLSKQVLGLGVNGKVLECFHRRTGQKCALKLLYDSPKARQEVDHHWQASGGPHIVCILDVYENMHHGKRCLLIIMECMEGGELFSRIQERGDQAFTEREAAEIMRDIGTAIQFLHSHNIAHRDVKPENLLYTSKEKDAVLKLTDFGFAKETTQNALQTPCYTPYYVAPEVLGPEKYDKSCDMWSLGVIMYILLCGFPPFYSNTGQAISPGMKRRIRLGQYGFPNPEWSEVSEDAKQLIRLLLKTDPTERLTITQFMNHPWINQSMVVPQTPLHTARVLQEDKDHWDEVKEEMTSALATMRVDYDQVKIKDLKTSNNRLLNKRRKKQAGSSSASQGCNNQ
Assay [4] deals with Protein kinase C delta type (Homo sapiens, UniProt Q05655). It is filed as functional.
Assay [5] deals with Hepatocyte growth factor receptor (Homo sapiens, UniProt P08581). It is filed as functional.
In assay [6] the target is Tyrosine-protein kinase Lyn (Homo sapiens, UniProt P07948). It is filed as functional.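 Further: lyn as one member of a kinase panel.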
Assay [7] has as its target RAC-gamma serine/threonine-protein kinase (Homo sapiens, UniProt Q9Y243). It counts as functional.
Assay [8] addresses Serine/threonine-protein kinase PLK4 (Homo sapiens, UniProt O00444). It counts as functional.
Assay [9] deals with RAC-alpha serine/threonine-protein kinase (Homo sapiens, UniProt P31749). It counts as functional.
Chain of RAC-alpha serine/threonine-protein kinase (P31749 whole entry): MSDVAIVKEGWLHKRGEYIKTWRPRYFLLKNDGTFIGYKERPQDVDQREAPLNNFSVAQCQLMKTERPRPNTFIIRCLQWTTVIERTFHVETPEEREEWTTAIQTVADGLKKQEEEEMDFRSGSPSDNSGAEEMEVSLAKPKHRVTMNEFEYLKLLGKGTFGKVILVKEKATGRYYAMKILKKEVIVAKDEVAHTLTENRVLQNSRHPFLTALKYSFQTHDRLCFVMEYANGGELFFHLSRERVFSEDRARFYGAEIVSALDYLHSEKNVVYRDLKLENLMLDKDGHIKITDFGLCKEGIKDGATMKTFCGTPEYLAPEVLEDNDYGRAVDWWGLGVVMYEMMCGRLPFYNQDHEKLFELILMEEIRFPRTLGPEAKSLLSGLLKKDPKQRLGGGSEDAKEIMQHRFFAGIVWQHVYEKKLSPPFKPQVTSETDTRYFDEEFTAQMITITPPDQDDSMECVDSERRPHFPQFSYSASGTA
Assay [10] deals with BDNF/NT-3 growth factors receptor (Homo sapiens, UniProt Q16620). It counts as functional.
The target of assay [11] is Glycogen synthase kinase-3 alpha (Homo sapiens, UniProt P49840). It is filed as functional.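 Further: GSK3A result taken from a broad kinome-wide kinase panel.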
Assay [12] concerns the target Casein kinase II subunit alpha (Homo sapiens, UniProt P68400). It counts as functional.
Assay [13] deals with Mitogen-activated protein kinase 9 (Homo sapiens, UniProt P45984). It counts as functional.
The target of another assay is Aurora kinase B (Homo sapiens, UniProt Q96GD4). It is filed as functional.
For assay [14], the target named is Serine/threonine-protein kinase Nek2 (Homo sapiens, UniProt P51955). It counts as functional.
Assay [15] deals with Serine/threonine-protein kinase PAK 1 (Homo sapiens, UniProt Q13153). It counts as functional.
Chain of Serine/threonine-protein kinase PAK 1 (Q13153 whole entry): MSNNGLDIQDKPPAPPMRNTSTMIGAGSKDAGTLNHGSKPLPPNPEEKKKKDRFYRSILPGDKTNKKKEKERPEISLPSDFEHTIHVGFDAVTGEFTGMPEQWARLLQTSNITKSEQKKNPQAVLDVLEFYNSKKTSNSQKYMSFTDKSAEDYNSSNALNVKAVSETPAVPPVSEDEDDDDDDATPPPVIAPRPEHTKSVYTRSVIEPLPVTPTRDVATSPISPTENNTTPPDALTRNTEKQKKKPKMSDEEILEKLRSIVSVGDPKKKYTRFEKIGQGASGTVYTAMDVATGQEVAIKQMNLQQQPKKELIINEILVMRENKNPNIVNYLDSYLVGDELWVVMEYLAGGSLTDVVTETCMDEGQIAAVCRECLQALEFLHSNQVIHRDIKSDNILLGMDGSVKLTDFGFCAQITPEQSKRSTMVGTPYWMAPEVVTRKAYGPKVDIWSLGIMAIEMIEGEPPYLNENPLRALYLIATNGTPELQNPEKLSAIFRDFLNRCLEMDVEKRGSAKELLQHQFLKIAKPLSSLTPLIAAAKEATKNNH
In assay [16] the target is Macrophage colony-stimulating factor 1 receptor (Homo sapiens, UniProt P07333). It counts as functional.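 Further: value comes from the Navigating the Kinome screening panel, CSF1R member.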
Chain of Macrophage colony-stimulating factor 1 receptor (P07333 whole entry): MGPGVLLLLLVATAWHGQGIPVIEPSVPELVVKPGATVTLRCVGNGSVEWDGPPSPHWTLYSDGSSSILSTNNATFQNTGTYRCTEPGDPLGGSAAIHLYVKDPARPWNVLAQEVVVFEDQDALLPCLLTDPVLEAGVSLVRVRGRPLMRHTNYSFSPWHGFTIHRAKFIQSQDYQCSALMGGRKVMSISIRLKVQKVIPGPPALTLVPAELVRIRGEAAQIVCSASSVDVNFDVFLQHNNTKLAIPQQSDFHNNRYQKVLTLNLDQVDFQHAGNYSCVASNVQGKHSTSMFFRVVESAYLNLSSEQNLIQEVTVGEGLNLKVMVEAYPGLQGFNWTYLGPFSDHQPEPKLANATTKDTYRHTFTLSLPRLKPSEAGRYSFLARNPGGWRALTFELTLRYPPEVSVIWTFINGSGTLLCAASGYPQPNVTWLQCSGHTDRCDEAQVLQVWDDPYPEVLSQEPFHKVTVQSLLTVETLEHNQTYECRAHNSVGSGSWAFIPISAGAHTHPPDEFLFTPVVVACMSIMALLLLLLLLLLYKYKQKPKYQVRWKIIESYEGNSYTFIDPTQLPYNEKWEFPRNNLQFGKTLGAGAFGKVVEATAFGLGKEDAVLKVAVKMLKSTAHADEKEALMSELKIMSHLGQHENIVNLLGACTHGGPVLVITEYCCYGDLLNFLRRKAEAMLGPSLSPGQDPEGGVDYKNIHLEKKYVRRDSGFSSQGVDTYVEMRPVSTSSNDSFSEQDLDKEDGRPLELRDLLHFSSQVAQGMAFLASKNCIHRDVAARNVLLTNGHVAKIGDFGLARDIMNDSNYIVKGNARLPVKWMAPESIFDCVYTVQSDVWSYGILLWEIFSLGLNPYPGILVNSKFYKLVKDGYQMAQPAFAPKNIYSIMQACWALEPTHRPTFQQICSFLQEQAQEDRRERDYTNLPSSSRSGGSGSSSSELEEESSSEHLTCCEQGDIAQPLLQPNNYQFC
In assay [17] the target is Serine/threonine-protein kinase pim-1 (Homo sapiens, UniProt P11309). It is filed as functional.
Assay [18] deals with Cyclin-dependent kinase 1 (Homo sapiens, UniProt P06493). It counts as functional.
Chain of Cyclin-dependent kinase 1 (P06493 whole entry): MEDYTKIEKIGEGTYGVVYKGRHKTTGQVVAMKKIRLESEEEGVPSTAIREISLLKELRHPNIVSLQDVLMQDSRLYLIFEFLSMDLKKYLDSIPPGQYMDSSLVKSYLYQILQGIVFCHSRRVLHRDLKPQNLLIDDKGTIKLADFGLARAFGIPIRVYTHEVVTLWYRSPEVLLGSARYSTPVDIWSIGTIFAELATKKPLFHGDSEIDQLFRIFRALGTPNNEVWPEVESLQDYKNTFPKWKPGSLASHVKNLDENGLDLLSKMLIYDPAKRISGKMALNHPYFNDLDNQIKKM
The target of assay [19] is Ribosomal protein S6 kinase beta-1 (Homo sapiens, UniProt P23443). It counts as functional.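 Further: measured as one member of a kinome-wide profiling panel.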
The target in assay [20] is Serine/threonine-protein kinase 3 (Homo sapiens, UniProt Q13188). It counts as functional.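 Further: measured as one member of a kinome-wide kinase panel.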
Chain of Serine/threonine-protein kinase 3 (Q13188 whole entry): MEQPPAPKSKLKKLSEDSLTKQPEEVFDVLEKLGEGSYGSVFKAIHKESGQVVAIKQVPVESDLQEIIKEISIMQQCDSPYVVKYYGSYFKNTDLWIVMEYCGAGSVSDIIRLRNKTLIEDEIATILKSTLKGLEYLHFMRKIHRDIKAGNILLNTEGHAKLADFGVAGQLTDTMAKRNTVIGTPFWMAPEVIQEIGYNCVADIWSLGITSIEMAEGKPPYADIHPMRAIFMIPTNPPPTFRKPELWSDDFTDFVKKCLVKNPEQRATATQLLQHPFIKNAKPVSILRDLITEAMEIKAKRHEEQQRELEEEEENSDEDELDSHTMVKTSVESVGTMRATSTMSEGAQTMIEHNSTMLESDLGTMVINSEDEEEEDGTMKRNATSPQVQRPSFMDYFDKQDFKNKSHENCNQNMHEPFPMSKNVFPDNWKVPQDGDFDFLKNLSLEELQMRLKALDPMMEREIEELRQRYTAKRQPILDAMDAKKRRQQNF
For assay [21], the target named is Interleukin-1 receptor-associated kinase 4 (Homo sapiens, UniProt Q9NWZ3). It is filed as functional.
The target in assay [22] is Fibroblast growth factor receptor 1 (Homo sapiens, UniProt P11362). It counts as functional.
For assay [23], the target named is Calcium/calmodulin-dependent protein kinase type 1 (Homo sapiens, UniProt Q14012). It counts as functional.
Chain of Calcium/calmodulin-dependent protein kinase type 1 (Q14012 whole entry): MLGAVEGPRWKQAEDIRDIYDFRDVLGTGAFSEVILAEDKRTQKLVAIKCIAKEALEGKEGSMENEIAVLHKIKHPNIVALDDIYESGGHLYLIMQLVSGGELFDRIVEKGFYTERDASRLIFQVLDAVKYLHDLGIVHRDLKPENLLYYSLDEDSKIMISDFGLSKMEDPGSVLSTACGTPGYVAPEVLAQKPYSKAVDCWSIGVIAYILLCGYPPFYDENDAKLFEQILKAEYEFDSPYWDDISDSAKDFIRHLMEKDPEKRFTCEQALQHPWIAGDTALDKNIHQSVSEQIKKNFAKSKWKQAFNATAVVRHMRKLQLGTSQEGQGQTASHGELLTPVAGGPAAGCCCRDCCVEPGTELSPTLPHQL
For assay [24], the target named is 5'-AMP-activated protein kinase catalytic subunit alpha-1 (Homo sapiens, UniProt Q13131). It counts as functional.
Chain of 5'-AMP-activated protein kinase catalytic subunit alpha-1 (Q13131 whole entry): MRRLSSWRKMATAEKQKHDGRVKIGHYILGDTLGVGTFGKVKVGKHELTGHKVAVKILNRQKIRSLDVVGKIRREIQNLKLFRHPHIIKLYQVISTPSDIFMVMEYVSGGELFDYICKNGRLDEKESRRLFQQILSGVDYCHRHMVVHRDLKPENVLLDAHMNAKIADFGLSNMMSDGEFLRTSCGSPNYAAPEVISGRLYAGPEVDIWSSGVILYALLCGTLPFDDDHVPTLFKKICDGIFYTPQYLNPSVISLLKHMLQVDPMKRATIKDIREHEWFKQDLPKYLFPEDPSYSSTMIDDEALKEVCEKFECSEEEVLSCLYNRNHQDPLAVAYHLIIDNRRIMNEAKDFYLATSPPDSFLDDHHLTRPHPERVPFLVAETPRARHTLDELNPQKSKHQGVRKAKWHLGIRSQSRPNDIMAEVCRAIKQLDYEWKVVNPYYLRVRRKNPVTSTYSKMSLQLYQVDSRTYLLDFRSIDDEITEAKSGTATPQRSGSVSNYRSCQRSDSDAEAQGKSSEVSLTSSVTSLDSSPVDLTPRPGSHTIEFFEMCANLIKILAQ
In assay [25] the target is Non-receptor tyrosine-protein kinase TYK2 (Homo sapiens, UniProt P29597). It counts as functional.
For assay [26], the target named is Mitogen-activated protein kinase 8 (Homo sapiens, UniProt P45983). It counts as functional.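 Further: value comes from one member of a kinome-wide kinase profiling panel.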
The target in assay [27] is MAP/microtubule affinity-regulating kinase 3 (Homo sapiens, UniProt P27448). It is filed as functional.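 Further: MARK3 affinity measured as one member of a kinome panel.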
Assay [28] can be described thus: cytotoxicity toward DRD oncogenic fibroblasts, dose response, cell-based, non-viral oncogenic, luminescence (AID 1934). It is filed as functional. The note with it: Homo sapiens.
Assay [29] has as its system BJ. The experiment in a line: cytotoxicity toward Ras-transformed BJeLR fibroblasts, dose response, cell-based, alamar blue fluorescence, cherrypicked samples (AID 2631).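 Further: confirmatory dose-response assay in RAS-dependent BJ fibroblasts engineered with TERT, LT and ST, with cytotoxicity read by fluorescence.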 The note with it: Homo sapiens. It is filed as functional. For orientation: The colour change of resazurin is a common sign of viable cells or microbes.
Assay [30] concerns BJ. The experiment in a line: cytotoxicity toward BJ-TERT fibroblasts, dose response, cell-based, RAS-independent, luminescence (AID 1933). It is filed as functional. The note with it: Homo sapiens.
A further assay has as its system INS1. Put plainly: beta cell apoptosis inhibitors, cytokine rescue, dose response, luminescence, retest (AID 449756).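 Further: cell death triggered by IL-1 beta plus TNF-alpha plus IFN-gamma mixture; protective hits raise ATP signal compared with cytokine alone wells.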 The note with it: Rattus norvegicus. It is filed as functional, cell-based.
For assay [31], the target named is T2, Ubiquitin-conjugating enzyme E2 N (Homo sapiens, UniProt P61088).
T2 sequence (P61088 whole entry): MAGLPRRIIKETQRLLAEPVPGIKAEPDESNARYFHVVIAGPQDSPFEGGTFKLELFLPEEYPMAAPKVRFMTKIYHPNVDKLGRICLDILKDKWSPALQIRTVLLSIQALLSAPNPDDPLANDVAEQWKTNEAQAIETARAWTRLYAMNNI
It is filed as functional.

Each structure is given as a SMILES string. The source made the active and inactive calls.

Chain of RAC-gamma serine/threonine-protein kinase (Q9Y243 whole entry): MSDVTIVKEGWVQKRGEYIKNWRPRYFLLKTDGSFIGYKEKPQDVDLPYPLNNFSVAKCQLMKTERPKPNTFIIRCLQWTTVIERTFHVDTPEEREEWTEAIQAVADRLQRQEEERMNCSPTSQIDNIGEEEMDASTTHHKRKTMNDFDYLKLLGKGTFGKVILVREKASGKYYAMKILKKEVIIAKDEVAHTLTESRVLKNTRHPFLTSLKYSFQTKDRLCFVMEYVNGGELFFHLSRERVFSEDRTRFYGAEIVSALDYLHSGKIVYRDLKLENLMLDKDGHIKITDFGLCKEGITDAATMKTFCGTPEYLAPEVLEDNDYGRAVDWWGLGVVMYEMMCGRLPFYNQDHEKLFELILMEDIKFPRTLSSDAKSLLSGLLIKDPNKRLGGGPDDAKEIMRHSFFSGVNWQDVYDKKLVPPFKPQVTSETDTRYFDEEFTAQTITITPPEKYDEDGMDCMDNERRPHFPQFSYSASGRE
Chain of Casein kinase II subunit alpha (P68400 whole entry): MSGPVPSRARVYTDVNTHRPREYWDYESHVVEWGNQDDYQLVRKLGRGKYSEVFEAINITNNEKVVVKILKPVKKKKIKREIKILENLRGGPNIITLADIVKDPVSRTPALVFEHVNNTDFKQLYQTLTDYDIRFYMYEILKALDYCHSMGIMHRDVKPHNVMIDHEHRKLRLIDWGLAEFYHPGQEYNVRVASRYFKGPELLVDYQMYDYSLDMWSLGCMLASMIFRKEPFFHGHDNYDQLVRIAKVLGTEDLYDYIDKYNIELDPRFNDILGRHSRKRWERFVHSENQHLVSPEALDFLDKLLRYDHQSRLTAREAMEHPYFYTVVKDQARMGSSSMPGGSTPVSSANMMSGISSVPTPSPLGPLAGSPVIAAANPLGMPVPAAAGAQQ

For `CCC(C)NC(=O)c1c(N)n(CCCOC)c2nc3ccccc3nc12` (centres undefined), the EC50 (as a rule, the concentration giving half of the maximal effect) in assay [1] was 33200 nM (active). For the same molecule, the IC50 (in general, the concentration at which inhibition is half-maximal) at Caspase-3 is 6150 nM (active).

On to `CC(=NNC(=N)N)c1cc(NC(=O)NCCCCCCNC(=O)Nc2cc(C(C)=NNC(=N)N)cc(C(C)=NNC(=N)N)c2)cc(C(C)=NNC(=N)N)c1`, for which the Ki (usually a dissociation constant, usually derived from enzyme kinetics or from competition with a known ligand) in assay [2] is > 6310 nM (inactive); in assay [3], 631 nM (active); in assay [4], 316 nM (active); in assay [5] it was 2510 nM (active); in [6], > 1580 nM (inactive); in assay [7] it was 398 nM (active). Moreover, the Ki in [8] is > 3980 nM (inactive); in assay [9] it was 398 nM (active); in [10], > 5010 nM (inactive); in [11] it was > 7940 nM (inactive); in assay [12] it was > 6310 nM (inactive); in assay [13], > 3980 nM (inactive). The Ki is 1260 nM (active) at Aurora kinase B; 3160 nM (active) in [14]; 398 nM (active) in [15]; > 2510 nM (inactive) in assay [16]; 158 nM (active) in assay [17]; 631 nM (active) in assay [18]. In addition, the Ki in assay [19] was 316 nM (active); in assay [20], 501 nM (active); in assay [21], 1580 nM (active); in assay [22] it was > 5010 nM (inactive); in assay [23], 3160 nM (active); in [24], 2510 nM (active). The figures for the Ki in [25], in assay [26] and in assay [27] were 2000 nM (active), > 3160 nM (inactive) and 2000 nM (active), respectively.

In the case of `Cc1cc(N)c2cc(NC(=O)/C=C/c3ccccc3Cl)ccc2n1`, the results for the EC50 (in [28]; in the assay with BJ [29]; in the assay with BJ [30]) were 2880 nM (active), 704 nM (inconclusive) and 2620 nM (inconclusive), respectively. Besides, in the assay on INS1, the concentration at half-maximal activity (AC50) (in general, the concentration giving half of the maximal activity seen) is 3830 nM (active). The IC50 in [31] is 3000 nM (active).
